Results on 3 compounds are retold here after PMC2951761 (Biochemistry, 2010).

Like-named read-outs stand apart in the source and are kept apart here.

The Ki is the dissociation constant of the complex between target and ligand, obtained from inhibition or displacement.

One assay addresses CyaA AC activity (Bordetella pertussis, UniProt P0DKX7). The settings on record: read-out: Ki CyaA AC activity; cited from earlier work.
Assay [1] deals with T1, EF AC activity (Bacillus anthracis, UniProt P40136). The settings on record: read-out: Ki EF AC activity; cited from earlier work.
T1 sequence (P40136 whole entry, looked up): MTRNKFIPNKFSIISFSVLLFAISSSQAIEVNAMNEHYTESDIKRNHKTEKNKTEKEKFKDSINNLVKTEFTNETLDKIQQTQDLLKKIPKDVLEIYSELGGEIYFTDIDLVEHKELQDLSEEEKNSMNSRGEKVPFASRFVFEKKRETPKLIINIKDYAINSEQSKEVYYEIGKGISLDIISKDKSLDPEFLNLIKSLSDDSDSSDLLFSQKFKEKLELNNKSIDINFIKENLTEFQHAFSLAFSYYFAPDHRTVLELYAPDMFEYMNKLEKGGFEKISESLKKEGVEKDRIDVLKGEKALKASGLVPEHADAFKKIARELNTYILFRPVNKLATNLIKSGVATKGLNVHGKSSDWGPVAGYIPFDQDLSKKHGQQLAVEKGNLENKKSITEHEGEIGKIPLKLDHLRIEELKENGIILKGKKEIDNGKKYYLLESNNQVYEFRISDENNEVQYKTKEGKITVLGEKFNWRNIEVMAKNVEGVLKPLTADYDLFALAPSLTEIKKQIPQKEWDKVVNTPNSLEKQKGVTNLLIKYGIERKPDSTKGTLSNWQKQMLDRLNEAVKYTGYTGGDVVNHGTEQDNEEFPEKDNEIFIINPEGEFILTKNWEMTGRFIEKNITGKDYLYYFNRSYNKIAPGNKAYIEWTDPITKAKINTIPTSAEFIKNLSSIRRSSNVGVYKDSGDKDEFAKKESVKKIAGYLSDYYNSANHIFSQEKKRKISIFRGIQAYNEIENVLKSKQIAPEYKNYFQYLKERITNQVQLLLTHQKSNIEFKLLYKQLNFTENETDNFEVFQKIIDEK
The target in another assay is CyaA CC activity (Bordetella pertussis, UniProt P0DKX7). Type of assay: biochemical. The settings on record: read-out: Ki CyaA CC activity.
Sequence of CyaA CC activity (P0DKX7 whole entry, looked up): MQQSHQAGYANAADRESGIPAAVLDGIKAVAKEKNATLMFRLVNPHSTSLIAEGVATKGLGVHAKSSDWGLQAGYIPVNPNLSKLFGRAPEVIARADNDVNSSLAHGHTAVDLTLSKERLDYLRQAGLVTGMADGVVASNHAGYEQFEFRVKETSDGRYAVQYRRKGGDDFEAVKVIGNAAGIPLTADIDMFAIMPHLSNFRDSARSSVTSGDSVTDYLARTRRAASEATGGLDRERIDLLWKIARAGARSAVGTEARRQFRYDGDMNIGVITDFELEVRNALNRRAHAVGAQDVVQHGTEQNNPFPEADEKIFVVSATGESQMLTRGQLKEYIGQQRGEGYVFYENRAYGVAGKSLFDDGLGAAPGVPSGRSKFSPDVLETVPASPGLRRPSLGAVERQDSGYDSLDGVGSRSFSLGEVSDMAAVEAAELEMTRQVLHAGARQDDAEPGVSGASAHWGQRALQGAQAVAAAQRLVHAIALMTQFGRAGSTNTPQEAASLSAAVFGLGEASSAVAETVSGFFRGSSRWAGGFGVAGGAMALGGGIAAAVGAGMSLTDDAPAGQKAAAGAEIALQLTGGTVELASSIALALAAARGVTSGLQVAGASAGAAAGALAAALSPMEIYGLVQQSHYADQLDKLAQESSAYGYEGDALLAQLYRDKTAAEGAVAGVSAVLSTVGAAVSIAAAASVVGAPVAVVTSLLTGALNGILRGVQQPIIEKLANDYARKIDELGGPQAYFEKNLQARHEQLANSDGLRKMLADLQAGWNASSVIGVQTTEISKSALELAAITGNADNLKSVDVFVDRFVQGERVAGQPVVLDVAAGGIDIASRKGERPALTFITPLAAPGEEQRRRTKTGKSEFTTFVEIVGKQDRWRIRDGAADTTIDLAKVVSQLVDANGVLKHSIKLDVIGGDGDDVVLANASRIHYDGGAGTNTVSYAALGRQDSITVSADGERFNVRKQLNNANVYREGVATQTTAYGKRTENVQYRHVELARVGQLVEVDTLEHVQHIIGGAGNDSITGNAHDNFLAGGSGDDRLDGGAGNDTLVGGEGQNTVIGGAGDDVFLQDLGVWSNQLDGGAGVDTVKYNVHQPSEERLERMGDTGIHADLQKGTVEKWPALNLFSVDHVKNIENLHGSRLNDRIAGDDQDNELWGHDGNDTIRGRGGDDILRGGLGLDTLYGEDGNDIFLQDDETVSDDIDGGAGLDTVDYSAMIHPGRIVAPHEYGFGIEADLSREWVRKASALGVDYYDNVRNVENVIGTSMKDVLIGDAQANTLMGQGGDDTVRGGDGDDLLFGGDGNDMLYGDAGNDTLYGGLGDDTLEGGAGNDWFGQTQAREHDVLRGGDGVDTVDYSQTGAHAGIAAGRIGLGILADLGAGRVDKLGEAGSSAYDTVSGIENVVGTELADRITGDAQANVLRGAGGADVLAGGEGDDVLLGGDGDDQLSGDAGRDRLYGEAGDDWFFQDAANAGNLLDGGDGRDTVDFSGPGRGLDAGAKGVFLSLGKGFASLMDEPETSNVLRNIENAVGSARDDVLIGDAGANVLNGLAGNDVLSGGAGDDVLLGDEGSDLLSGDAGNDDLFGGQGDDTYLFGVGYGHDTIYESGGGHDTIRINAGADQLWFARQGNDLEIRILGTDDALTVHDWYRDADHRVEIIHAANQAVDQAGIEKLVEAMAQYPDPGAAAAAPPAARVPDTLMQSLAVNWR
For a further assay, the target named is EF CC activity (Bacillus anthracis, UniProt P40136). Type of assay: biochemical. As to conditions: read-out: Ki EF CC activity.
Sequence of EF CC activity (P40136 whole entry, looked up): as the sequence (P40136 whole entry, looked up) above
Assay [2] addresses T1, EF AC activity. Type of assay: biochemical. As to conditions: read-out: Ki EF AC activity.

Sequence of CyaA AC activity (P0DKX7 whole entry, looked up): as the sequence (P0DKX7 whole entry, looked up) above

With MANT-GTP, the Ki at CyaA AC activity is 5.9 ± 1 µM; at EF AC activity [1], 2.5 ± 0.1 µM; at CyaA CC activity, 6.1 ± 2 µM; on EF CC activity it was 2.8 ± 0.4 µM.
Take `Nc1ncnc2c1ncn2CCOCP(=O)(O)OP(=O)(O)OP(=O)(O)O` [PMEApp, [9-[2-(Phosphonomethoxy)ethyl]adenine diphosphate]]: the Ki at EF AC activity [2] was found to be 0.002 ± 0.0005 µM; at EF CC activity, 0.0045 ± 0.0004 µM.
In the case of MANT-ATP, the Ki at CyaA AC activity is 4.3 ± 0.4 µM; on CyaA CC activity, 4.4 ± 0.1 µM.
